Data: US20230277569A1, “Compositions and Methods for Treating, Ameliorating and/or Preventing Cancer and Kits for the Same” (priority 2022, published 2023)

Assay: Phase I, cytochrome P450-mediated human liver microsome metabolism
Settings: 0.5 μM; human liver microsomes

Cc1ncc2n1-c1ccc(Cl)cc1C(c1ccccc1F)=NC2 [Midazolam, reference compound]
elimination rate constant (k): 0.04 | intrinsic clearance (CLint): 3.23 mL/min/g
